{"source": "patent US20060252725A1", "about": "“Use of prebiotics for preventing or treating oxidation stress” (priority 2002, published 2006)", "type_in_all_cases": "in vivo, rat (Wistar-Han)", "key": {"[1]": {"assay": "Plasma triglyceride concentration in rats after 4 weeks of diet", "conditions": "diet for 4 weeks, average of 10 animals ± standard deviation", "description": "(§1) 40 weaned male rats of the Wistar-Han type (IFFA-CREDO; L'Arbresle, France) 6 week old and weighing approximately 150 g were used. The rats were placed in cages with a wire mesh back in a temperature-controlled room (22° C.) with day/night cycles of 12 hours. The animals were treated according to the recommendations of the INRA Ethics Committee, decree No. 87-848.\n(§2) First of all the rats were fed following a semi-purified starch-based diet for 7 days: They were then randomly divided into 4 groups of 10 rats: one starch group (A), one fructose group (F), one starch+FOS group (A/FOS) and one fructose+FOS group (F/FOS). They then followed their appropriate diet for 4 weeks.\n(§3) The food and distilled water were provided ad libitum. The composition of the food rations was as follows (in g/kg):\n(§4) The FOS (Raftilose® P95) were obtained from ORAFTI, Thienen, Belgium. They were introduced into the food gradually in order to avoid diarrhoea which could occur in response to too rapid an administration of large quantities of this compound. […]\n(§5) 4 days before sacrifice, the animals were housed individually in stainless steel cages with ad libitum access to the water and food. Urine-samples were recovered 24 hours before sacrifice in 50 ml graduated tubes, the volumes were precisely measured, the samples were then centrifuged and kept at −80° C. until analysis. […]"}, "heart lipids": {"tested_on": "heart lipids", "assay": "Heart TBARS: susceptibility of heart lipids to FeSO4-ascorbate induced peroxidation", "conditions": "rats, diet for 4 weeks", "description": "as §1\nas §2, with “weeks. […]” for “weeks.”\nas §4, §5\n(§6) The levels of plasma TBARS were determined by spectrofluorometry on an LS 5 device (Perkin Elmer, Norwalk, Conn., USA). […]"}, "lipid peroxidation [2]": {"tested_on": "lipid peroxidation", "assay": "Plasma TBARS in rats after 4 weeks of diet", "description": "as §1\nas §2, with “weeks. […]” for “weeks.”\nas §4, §5, §6"}, "lipid peroxidation [3]": {"tested_on": "lipid peroxidation", "assay": "Urinary TBARS in rats after 4 weeks of diet", "conditions": "diet for 4 weeks", "description": "as §1\nas §2, with “weeks. […]” for “weeks.”\nas §4, §5, §6"}, "[4]": {"assay": "Plasma vitamin E concentration and vitamin E/triglycerides ratio in rats after 4 weeks of diet", "conditions": "diet for 4 weeks", "description": "as §1, §2, §3\nThe FOS (Raftilose® P95) were obtained from ORAFTI, Thienen, Belgium. They were introduced into the food gradually in order to avoid diarrhoea which could occur in response to too rapid an administration of large quantities of this compound. Raftilose® P95 is a mixture of Glucosyl-(Fructosyl)n-Fructose (64%) and of (Fructosyl)m-Fructose (36%) with average degrees of polymerization of 4.8.\nas §5, with “analysis. At the time of sacrifice the rats were weighed, then anesthetized using sodium pentobarbital (intra-peritoneal injection at 40 mg/kg) and killed.” for “analysis.”\nThe plasma concentrations of vitamin E were determined by reversed-phase high performance liquid chromatography on a Kontron series 400 device (Kontron St Quentin en Yvelines, France) using a hexane extract. α-tocopherol acetate (Sigma) was added to the samples as internal control. […] The compounds were detected by UV (292 nm) then quantified with internal and external calibrations using control solutions."}, "[5]": {"conditions": "Fructose vs Starch group, Fructose+FOS vs Fructose group"}}}
{"smiles": "O=C(CO)[C@@H](O)[C@H](O)[C@H](O)CO", "note": "[Fructose]", "values": [{"measurement": "Triglycerides (TG)", "setting": "[1]", "value": "3.73 ± 0.45", "unit": "mM"}, {"measurement": "Heart TBARS, comparison between diet groups", "setting": "heart lipids; [5]", "value": "significantly higher"}, {"measurement": "Heart TBARS", "setting": "heart lipids; heart homogenate, FeSO4 (2 μmol/l)-ascorbate (50 μmol/l), 30 minutes at 37° C., average of 10 animals ± standard deviation", "value": "98.8 ± 6.5 nmol/g of fresh weight"}, {"measurement": "Plasma TBARS", "setting": "lipid peroxidation [2]; diet ad libitum for 4 weeks, FOS 100 g/kg diet, sugar 650 or 550 g/kg, average of 10 animals ± standard deviation", "value": "2.14 ± 0.07", "unit": "nmol/mL"}, {"measurement": "Plasma TBARS, comparison between diet groups", "setting": "lipid peroxidation [2]; diet for 4 weeks, Fructose vs Starch group, Fructose+FOS vs Fructose group", "value": "significantly higher"}, {"measurement": "Urinary TBARS, comparison between diet groups", "setting": "lipid peroxidation [3]; [5]", "value": "significantly higher"}, {"measurement": "Urinary TBARS", "setting": "lipid peroxidation [3]; urine of 24 hours, average of 10 animals ± standard deviation", "value": "21.97 ± 1.58", "unit": "nmol/24 h"}, {"measurement": "Ratio Vitamin E/TG, effect of the diet", "setting": "[4]; diet rich in fructose vs starch diet, supplementation with FOS", "value": "lowers the ratio Vitamin E/TG"}, {"measurement": "Vitamin E/TG", "setting": "[4]; plasma ratio, average of 10 animals ± standard deviation", "value": "2.68 ± 0.12", "unit": "µg/µmol"}, {"measurement": "Vitamin E", "setting": "[4]; plasma, average of 10 animals ± standard deviation", "value": "9.74 ± 0.92", "unit": "µg/mL"}]}
